The source of these data is US10183155B2, “Implantable devices and methods for evaluation of active agents” (Kibur Medical, Inc., priority 2011, dated 2019).

Data set [1] relates to A375 tumors. Put plainly: Local tumor apoptosis (cleaved caspase 3) after systemic dosing in A375 tumors. The class given is in vivo, mice. To be noted: systemic dosing 8 mg/kg, 24 hours. As to the method: (§1) To compare the efficacy of device delivered doxorubicin to efficacy achieved with systemic delivery, mice bearing A375 or PC3 tumors were systemically administered an 8 mg/kg dose of doxorubicin. Apoptosis, as measured by cleaved caspase 3 expression, was used to evaluate drug efficacy at 24 hours post implantation or systemic dosing.

Data set [2] is described as follows: Intratumor concentration of doxorubicin after systemic administration. The class given is in vivo. The settings on record: systemic 8 mg/kg, BT474 bearing mice. The protocol: (§2) Doxorubicin was administered systemically at 8 mg/kg to BT474 bearing mice. Intratumor concentration of doxorubicin was analyzed by standard immunohistochemical and fluorescence techniques previously described and standard in the art. Doxorubicin was loaded into microwells in the device. The device was implanted in a BT474 tumor as in Example 7. After 20 hours, the device and surrounding tissue was excised and doxorubicin concentration in the surrounding tumor tissue was analyzed.

In data set [3] the test system is A375 tumors. Put plainly: Implantable device assay: apoptosis (cleaved caspase 3) after device delivery in A375 tumors. The class given is in vivo, mice. The protocol:
(§3) Doxorubicin was loaded into a microwell in the implantable device. The device was implanted into tumor tissue. This was repeated for three different murine human cell tumor models (BT474, PC3, A375). After implantation for 20 hours, the device and surrounding tissue was removed, and embedded in acrylic for cross-sectioning and histopathological analysis.
(§4) Fluorescent imaging techniques were used on sample cross-sections to determine the doxorubicin concentration and diffusion profile within the tissue surrounding the device. Standard histopathological techniques, such as but not limited to, immunochemical techniques, can be used to measure a desired characteristic within the surrounding tissue to determine effectiveness of a compound. In this instance, cleaved caspase 3 antibodies were used to detect cells undergoing apoptosis.
Efficacy of doxorubicin at different concentration gradients within the tissue was quantified using a two-step analysis. […]
Second, the effect of the drug on a measurable characteristic in each concentration region is determined. In this example, the amount of cells undergoing apoptosis, as determined by cleaved caspase 3 antibody binding, was evaluated in each doxorubicin concentration region. Efficacy of the doxorubicin released from the microwell is determined by antibody staining of tissue sections divided into regions corresponding to local compound exposure.
Varying percentages (1% and 5% by weight) of doxorubicin was dissolved in PEG having a molecular weight of 1000 or 1450. […] After 20 hours, the device and surrounding tissue was removed and analyzed for doxorubicin concentration and cleaved caspase 3 expression, as previously described.
Murine A375, BT474, or PC3 tumor models were used to determine whether the device measurement of local microdose response is a satisfactory predictor of a systemic response in different tumor models. […] Apoptosis, as measured by cleaved caspase 3 expression, was used to evaluate drug efficacy at 24 hours post implantation or systemic dosing. […]

Data set [4] concerns survivin. Put plainly: Survivin protein expression by immunohistochemistry around device in BT474 tumor. The class given is in vivo. To be noted: 20 hour exposure, region closest to the microwell. The protocol: (§5) Doxorubicin was loaded into microwells in the device and implanted within a BT474 tumor. After 20 hours, the device and surrounding tissue was removed. Protein expression of cleaved caspase 3 and Poly(ADP-ribose) polymerase (PARP) was evaluated by immunohistochemical analysis. These biomarkers are indicators of apoptosis. Protein expression of Ki67 and survivin was evaluated by immunohistochemical analysis. Ki67 is a biomarker for monitoring reduced cell proliferation rates. Survivin is a biomarker for monitoring reduced inhibition of apoptosis.
(§6) Effect of 20 hour doxorubicin exposure on the expression of the biomarkers was determined as described in Example 4. However, here four concentration gradient regions of approximately 100 μm were determined and evaluated.

The test system of data set [5] is PC3 tumors. Put plainly: Local tumor apoptosis (cleaved caspase 3) after systemic dosing in PC3 tumors. It is filed as in vivo, mice. To be noted: systemic dosing 8 mg/kg, 24 hours. The protocol: as §1
Data set [6] relates to MDA-MB231 tumors. Put plainly: Implantable device assay: apoptosis (cleaved caspase 3) after device delivery in MDA-MB231 tumors. The class given is in vivo, mice. The protocol: Lapatinib was loaded into microwells in the implantable device that were preloaded with doxorubicin. The device was then implanted into MDA-MB231 tumors. The device and surrounding tissue was removed 24 hours later and apoptosis was evaluated by cleaved caspase 3 expression using standard immunohistochemical assays.

Data set [7] concerns Ki67. Put plainly: Ki67 protein expression by immunohistochemistry around device in BT474 tumor. The class given is in vivo. The settings on record: 20 hour exposure, region closest to the microwell. The protocol: as §5, §6
A short description of data set [8]: Doxorubicin concentration in tumor tissue surrounding the implanted device (fluorescent imaging). The class given is in vivo, mice. The settings on record: mouse, pure doxorubicin in microwell, 20 hours post implantation.
Excerpt: as §4
Varying percentages (1% and 5% by weight) of doxorubicin was dissolved in PEG having a molecular weight of 1000 or 1450. Pure powder doxorubicin and the PEG-doxorubicin formulations were loaded into microwells in the device. The device was implanted into tumors. After 20 hours, the device and surrounding tissue was removed and analyzed for doxorubicin concentration and cleaved caspase 3 expression, as previously described.
Microwells were loaded with pure doxorubicin and the device was implanted into tumor tissue. The device and surrounding tissue was removed at varying times post-implantation. The concentration of doxorubicin in the surrounding tissue was evaluated using immunohistochemical techniques and fluorescent imaging.
as §2

The subject of data set [9] is BT474 tumors. Put plainly: Implantable device assay: apoptosis (cleaved caspase 3) after device delivery in BT474 tumors. The class given is in vivo, mice. To be noted: for apoptotic index (AI): device-delivery, 24 hours post implantation; for increase of apoptosis by addition to microwells preloaded with doxorubicin: 24 hours, vs doxorubicin alone. The protocol: as §3, §4
(§7) Murine A375, BT474, or PC3 tumor models were used to determine whether the device measurement of local microdose response is a satisfactory predictor of a systemic response in different tumor models. Doxorubicin was placed within the microwells of implantable devices. The devices were implanted into A375, BT474, or PC3 tumors on mice. Apoptosis, as measured by cleaved caspase 3 expression, was used to evaluate drug efficacy at 24 hours post implantation or systemic dosing.
Sunitinib or lapatinib was loaded into microwells in the implantable device that were preloaded with doxorubicin. The device was then implanted into BT474 tumors. The device and surrounding tissue was removed 24 hours later and apoptosis was evaluated by cleaved caspase 3 expression using standard immunohistochemical assays.

Data set [10] has as its system PC3 tumors. Put plainly: Implantable device assay: apoptosis (cleaved caspase 3) after device delivery in PC3 tumors. It is filed as in vivo, mice. The settings on record: for apoptotic index (AI): device-delivery, 24 hours post implantation. The protocol: as §3, §4, §7
The implantable device assay was tested in murine tumor models (A375 and PC3) for its ability to predict the response of tumors to several other cytotoxic and targeted anti-cancer agents. Vemurafenib is an enzyme inhibitor that specifically targets the BRAF V600E mutation. A375 tumors have this mutation. […] Response to vemurafenib was measured by intratumor apoptotic response using the implantable device assay.
Sunitinib was loaded into microwells in the implantable device that were preloaded with doxorubicin. The device was then implanted into PC3 tumors. The device and surrounding tissue was removed 24 hours later and apoptosis was evaluated by cleaved caspase 3 expression using standard immunohistochemical assays.

Setting [11] is: device-delivery, single agent, MDA-MB231 tumors.

Structures are written as SMILES. Values joined by “and” are separate entries in the source; they are usually repeats but may differ in a detail not shown here. Equal values may be shown once.

With `COc1cccc2c1C(=O)c1c(O)c3c(c(O)c1C2=O)C[C@@](O)(C(=O)CO)C[C@@H]3O[C@H]1C[C@H](N)[C@H](O)[C@H](C)O1` [doxorubicin], the “local tumor apoptosis, apoptotic index (AI)” value in data set [1] amounted to 34.9%; in data set [5], 8.7%. In data set [2], the “intratumor doxorubicin concentration, areas of high concentration” value is 8 to 13 mg/kg. The “intratumor doxorubicin concentration, areas of low concentration” value in data set [2] lay in the range of 3 to 7 mg/kg. Besides, the “number of cleaved caspase 3 positive cells as percent area of DAB staining” value in data set [3] (20 hours, A375 compared with BT474 and PC3, approximately 100-250 μm from the microwell) is on record as “greatest number of cells to undergo apoptosis”. Further, the “apoptotic index (AI)” value is recorded as 55% in [3] (device-delivery, A375 tumors, 24 hours post implantation); 7.4% in data set [6] (setting [11]); 18% in data set [9]; 6% in [10]. Also, the Survivin expression entry in data set [4] is given as “undetectable”. Moreover, the Ki67 expression result in data set [7] is given as “undetectable levels”. Besides, the figures for the concentration at 20 h in [8] (0-130 μm from the microwell), in data set [8] (approximately 130-200 μm from the microwell) and in [8] (approximately 200-300 μm from the microwell) were 15000 to 20000 ng/g, 8000 to 13000 ng/g and 3000 to 7000 ng/g, respectively.

As to `Nc1ccn([C@@H]2O[C@H](CO)[C@@H](O)C2(F)F)c(=O)n1` [gemcitabine], the “apoptotic index (AI)” value in data set [6] (setting [11]) was 21.8%; in data set [9], 2.0% and 2.6%; in data set [10] it was 12.5%.

As for `CS(=O)(=O)CCNCc1ccc(-c2ccc3ncnc(Nc4ccc(OCc5cccc(F)c5)c(Cl)c4)c3c2)o1` [lapatinib], the “elevation of apoptotic response by addition to doxorubicin in the microwells” value in data set [6] (MDA-MB-231 tumors, 24 hours, vs doxorubicin alone) came to 140%. Moreover, in data set [6] (lapatinib added to doxorubicin in the microwells, MDA-MB-231 tumors, 24 hours), the “apoptotic index (AI)” value is listed as 17.5%. The “increase of apoptosis by addition to microwells preloaded with doxorubicin” value in [9] is 355%.

On to `CCN(CC)CCNC(=O)c1c(C)[nH]c(/C=C2\C(=O)Nc3ccc(F)cc32)c1C` [sunitinib], for which the “increase of apoptosis by addition to microwells preloaded with doxorubicin” value was found to be 66% in data set [9] and 330% in [10] (24 hours, vs doxorubicin alone).

For the compound `CC[C@@]1(O)C(=O)OCc2c1cc1n(c2=O)Cc2cc3c(CN(C)C)c(O)ccc3nc2-1` [topotecan], the “apoptotic index (AI)” value in [9] was determined as 2.2%; in data set [10] it was 6.3%.

Regarding `CCCS(=O)(=O)Nc1ccc(F)c(C(=O)c2c[nH]c3ncc(-c4ccc(Cl)cc4)cc23)c1F` [vemurafenib], in [3] (device-delivery, A375 (BRAF V600E) vs PC3), the “intratumor apoptotic response greater in A375 model as compared to PC3 model” value came out at 250%.
